The assay has as its target T1, thrombin receptor (Homo sapiens, UniProt P25116).
T1 construct: washed human platelets are prepared from blood drawn from healthy volunteers; endogenous in cells; host or cells: washed human platelets from healthy volunteers
T1 sequence (P25116 22-425): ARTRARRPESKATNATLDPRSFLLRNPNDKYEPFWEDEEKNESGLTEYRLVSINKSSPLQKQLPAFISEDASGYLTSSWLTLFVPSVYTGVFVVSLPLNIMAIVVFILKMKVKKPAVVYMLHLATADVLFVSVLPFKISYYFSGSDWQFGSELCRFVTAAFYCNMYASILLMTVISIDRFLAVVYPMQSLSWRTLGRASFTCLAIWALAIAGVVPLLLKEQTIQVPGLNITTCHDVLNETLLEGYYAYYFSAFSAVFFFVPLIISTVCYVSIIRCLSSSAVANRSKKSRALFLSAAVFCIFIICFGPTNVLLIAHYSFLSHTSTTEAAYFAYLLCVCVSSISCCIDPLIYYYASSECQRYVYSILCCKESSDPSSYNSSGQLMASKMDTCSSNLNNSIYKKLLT
In words: Platelet aggregation assay for thrombin receptor antagonist activity (washed human platelets stimulated with α-thrombin). In kind it is cell-based. The method, then:
The compounds of the present invention may be tested for thrombin receptor antagonist activity by using a platelet aggregation assay. In this assay, washed human platelets are prepared from blood drawn from healthy volunteers who have not ingested any medications for two weeks prior to donation. Blood is drawn into 12.5% (vol/vol) ACD (85 mM sodium citrate, 111 mM dextrose, 71 mM citric acid) containing 0.1% (vol/vol) PGI2 (0.05 mg/mL PGI2, 100 mM Tris, pH 12). Platelet-rich plasma was obtained by centrifugation at 160×g for 20 minutes. The platelets were pelleted by centrifugation at 760×g for 10 minutes and resuspended in CGS (13 mM trisodium citrate, 120 mM sodium chloride, 30 mM dextrose, pH 7.0) containing 0.1% (vol/vol) PGI2, repelleted and resuspended in Tyrodes buffer (10 mM Hepes, 12 mM sodium bicarbonate, 138 mM sodium chloride, 5.5 mM glucose, 2.9 mM potassium chloride, 1.0 mM calcium chloride, pH 7.4) and stored at 37° C. Approximately 0.4-10 nM α-thrombin is used to stimulate platelet aggregation in control reactions which are monitored by aggregometry using an aggregometer. Candidate antagonists are added to the platelet mixture followed by the addition of thrombin in order to assess their ability to prevent thrombin-mediated aggregation.
Platelet aggregation can also be measured with washed platelets in 96-well microtiter plates as described in Fratantoni, J. C. et al., Am. J. Clin. Pathol. 94:613-617 (1990). The ability of the antagonists to block the thrombin receptor was assessed in this assay using various concentrations of antagonists. The concentration at which 50% inhibition of platelet aggregation is achieved is defined as IC50.

[1] abbreviates: washed human platelets, thrombin-mediated aggregation, read-out: IC50 (concentration at which 50% inhibition of platelet aggregation is achieved).

Read-outs that look alike come from different tables or passages of the source. *1 amine or outer side, *2 acyl side, *3 side chain or, on linkers, in order; H or OH if unused. Where a SMILES comes first, the peptide text is derived from it. [ ]: non-standard residue; d: D form. The star is where a group is joined. X18 = CN(CC(c1ccccc1)c1ccccc1)[C@@H](Cc1ccccc1)C(=O)*; X25 = CN(Cc1ccc(-c2ccccc2)cc1)[C@@H](Cc1ccccc1)C(=O)*; X1 = CN(Cc1cccc(Oc2ccccc2)c1)[C@@H](Cc1ccccc1)C(=O)*; X16 = CCCCCN([C@@H](Cc1ccccc1)C(=O)[*:2])[*:1]; X12 = CCCCCN([C@H](Cc1ccccc1)C(=O)[*:2])[*:1]; X13 = CN(CC1CCCCC1)[C@@H](Cc1ccccc1)C(=O)*; X6 = CCCCCN(CCCCC)[C@@H](Cc1ccccc1)C(=O)*; X9 = CN(Cc1ccccc1)[C@@H](Cc1ccccc1)C(=O)*; X11 = O=C([C@@H]1Cc2ccccc2CN1CC1CCCCC1)*; Benzoyl(2-Ph) = O=C(c1ccccc1-c1ccccc1)*; X19 = CC(C)(C)CN1Cc2ccccc2C[C@H]1C(=O)*; X5 = CCCCCN(C)[C@@H](Cc1ccccc1)C(=O)*; X7 = CCCCCCC(Oc1ccc2ccccc2c1)C(=O)*; Cha = N[C@@H](CC1CCCCC1)C(=O)O; X21 = CCCCC(Oc1ccccc1)C(=O)*

Results on 14 molecules are retold here after patent publication US5866681A, “Thrombin receptor antagonists” (priority 1995, dated 1999).

Turning to `N=C(N)NCCC[C@H](NC(=O)[C@H](CC1CCCCC1)NC(=O)[C@H](CC1CCCCC1)NC(=O)[C@@H]1Cc2ccccc2CN1CC1CCCCC1)C(=O)N[C@@H](CCCCN)C(N)=O` [Compound 12] (X11-[Cha][Cha]RK-NH2), the IC50 under setting [1] came to 20 µM.

For the molecule `CC(C)(C)CN1Cc2ccccc2C[C@H]1C(=O)N[C@@H](CC1CCCCC1)C(=O)N[C@@H](CC1CCCCC1)C(=O)N[C@@H](CCCNC(=N)N)C(=O)N[C@@H](CCCCN)C(N)=O` [Compound 13] (X19-[Cha][Cha]RK-NH2), the IC50 under setting [1] is 5 µM.

Take `CCCCCN[C@@H](Cc1ccccc1)C(=O)N[C@@H](CC1CCCCC1)C(=O)N[C@@H](CC1CCCCC1)C(=O)N[C@@H](CCCNC(=N)N)C(=O)N[C@@H](CCCCN)C(N)=O` [Compound 14] (H-[X16][Cha][Cha]RK-NH2): the IC50 stood at 5 µM.

`CCCCCN(C)[C@@H](Cc1ccccc1)C(=O)N[C@@H](CC1CCCCC1)C(=O)N[C@@H](CC1CCCCC1)C(=O)N[C@@H](CCCNC(=N)N)C(=O)N[C@@H](CCCCN)C(N)=O` [Compound 15] (X5-[Cha][Cha]RK-NH2) came in with an IC50 of 10 µM.

With `CN(CC(c1ccccc1)c1ccccc1)[C@@H](Cc1ccccc1)C(=O)N[C@@H](CC1CCCCC1)C(=O)N[C@@H](CC1CCCCC1)C(=O)N[C@@H](CCCNC(=N)N)C(=O)N[C@@H](CCCCN)C(N)=O` [Compound 16] (X18-[Cha][Cha]RK-NH2), the IC50 stood at 10 µM.

As for `CN(Cc1cccc(Oc2ccccc2)c1)[C@@H](Cc1ccccc1)C(=O)N[C@@H](CC1CCCCC1)C(=O)N[C@@H](CC1CCCCC1)C(=O)N[C@@H](CCCNC(=N)N)C(=O)N[C@@H](CCCCN)C(N)=O` [Compound 17] (X1-[Cha][Cha]RK-NH2), the IC50 under setting [1] came to 15 µM.

As to `CN(Cc1ccc(-c2ccccc2)cc1)[C@@H](Cc1ccccc1)C(=O)N[C@@H](CC1CCCCC1)C(=O)N[C@@H](CC1CCCCC1)C(=O)N[C@@H](CCCNC(=N)N)C(=O)N[C@@H](CCCCN)C(N)=O` [Compound 18] (X25-[Cha][Cha]RK-NH2), the IC50 under setting [1] was determined as 5 µM.

For `CN(Cc1ccccc1)[C@@H](Cc1ccccc1)C(=O)N[C@@H](CC1CCCCC1)C(=O)N[C@@H](CC1CCCCC1)C(=O)N[C@@H](CCCNC(=N)N)C(=O)N[C@@H](CCCCN)C(N)=O` [Compound 19] (X9-[Cha][Cha]RK-NH2), the IC50 under setting [1] stood at 30 µM.

As for `CN(CC1CCCCC1)[C@@H](Cc1ccccc1)C(=O)N[C@@H](CC1CCCCC1)C(=O)N[C@@H](CC1CCCCC1)C(=O)N[C@@H](CCCNC(=N)N)C(=O)N[C@@H](CCCCN)C(N)=O` [Compound 20] (X13-[Cha][Cha]RK-NH2), the IC50 under setting [1] is 15 µM.

As to `CCCCCN(CCCCC)[C@@H](Cc1ccccc1)C(=O)N[C@@H](CC1CCCCC1)C(=O)N[C@@H](CC1CCCCC1)C(=O)N[C@@H](CCCNC(=N)N)C(=O)N[C@@H](CCCCN)C(N)=O` [Compound 21, (N,N-di-n-pentyl-Phe)-Cha-Cha-Arg-Lys-NH2] (X6-[Cha][Cha]RK-NH2), the IC50 under setting [1] is 10 µM.

`CCCCCN[C@H](Cc1ccccc1)C(=O)N[C@@H](CC1CCCCC1)C(=O)N[C@@H](CC1CCCCC1)C(=O)N[C@@H](CCCNC(=N)N)C(=O)N[C@@H](CCCCN)C(N)=O` [Compound 22] (H-[X12][Cha][Cha]RK-NH2) displayed an IC50 of 25 µM.

As for `CCCCCCC(Oc1ccc2ccccc2c1)C(=O)N[C@@H](CC1CCCCC1)C(=O)N[C@@H](CC1CCCCC1)C(=O)N[C@@H](CCCNC(=N)N)C(=O)N[C@@H](CCCCN)C(N)=O` (some centres unmarked) [Compound 23] (X7-[Cha][Cha]RK-NH2), the IC50 under setting [1] was 5 µM.

`CCCCC(Oc1ccccc1)C(=O)N[C@@H](CC1CCCCC1)C(=O)N[C@@H](CC1CCCCC1)C(=O)N[C@@H](CCCNC(=N)N)C(=O)N[C@@H](CCCCN)C(N)=O` (some centres unmarked) [Compound 24] (X21-[Cha][Cha]RK-NH2): under setting [1], the IC50 was 15 µM.

`N=C(N)NCCC[C@H](NC(=O)[C@H](CC1CCCCC1)NC(=O)[C@H](CC1CCCCC1)NC(=O)c1ccccc1-c1ccccc1)C(=O)N[C@@H](CCCCN)C(N)=O` [Compound 25] ({Benzoyl(2-Ph)}-[Cha][Cha]RK-NH2): the IC50 under setting [1] was 25 µM.
